Experimental data: patent US8754054B2, “Antibacterial compounds, methods of making them, and uses thereof” (Albany Molecular Research, Inc., priority 2010, dated 2014)

What was measured:
Experiment in all cases: Antibacterial activity in vitro, NCCLS dilution method (Table 10)
Type in all cases: cell-based
S. epidermidis 1452 = conditions: S. epidermidis 1452, Gram +, MRSE
Source text: (§1) NCCLS standards for antimicrobial susceptibility testing using the dilution method were followed. See: Performance Standards for Antimicrobial Susceptibility Testing; Fourteenth Informational Supplement. NCCLS Document M100-S14 (ISBN 1-56238-516-X), 2004. NCCLS, 940 West Valley Road, Suite 1400, Wayne, Pa. 19087-1898 USA, 2004; Methods for Dilution Antimicrobial Susceptibility Tests for Bacteria that Grow Aerobically; Approved Standard—Sixth Edition. NCCLS document M7-A6 (IBSBN 1-56238-486-4), NCCLS, 940 West Valley Road, Suite 1400, Wayne, Pa. 19087-1898 USA, 2003, which are hereby incorporated by reference in their entirety.

S. pneumoniae 975 = conditions: S. pneumoniae 975, Gram +, PSSP
Source text: as §1

S. saprophyticus 495 = conditions: S. saprophyticus 495, Gram +
Source text: as §1

S. aureus (ATCC 29213) = conditions: Gram +, MSSA
Source text: as §1

S. aureus 2012 = conditions: S. aureus 2012, Gram +, VISA
Source text: as §1

K. pneumoniae 2262 = conditions: K. pneumoniae 2262, Gram −, ampC, MDR
Source text: as §1

S. pneumoniae 933 = conditions: S. pneumoniae 933, Gram +, MDR
Source text: as §1

S. pneumoniae 940 = conditions: S. pneumoniae 940, Gram +, PRSP
Source text: as §1

S. aureus 1137 = conditions: S. aureus 1137, Gram +, MRSA
Source text: as §1

S. agalactiae 2033 = conditions: S. agalactiae 2033, Gram +
Source text: as §1

E. faecium 700221 = conditions: E. faecium 700221, Gram +, VRE
Source text: as §1

[1] = tested on: H. parainfluenzae 2319 (ATCC 7901); conditions: Gram −
Source text: as §1

E. coli 102 (ATCC 25922) = conditions: Gram −, QC strain
Source text: as §1

S. aureus 1725 = conditions: S. aureus 1725, Gram +, LRSA
Source text: as §1

E. faecalis 846 = conditions: E. faecalis 846, Gram +, VRE
Source text: as §1

S. marcescens 1635 = conditions: S. marcescens 1635, Gram −
Source text: as §1

S. pneumoniae 376 = conditions: S. pneumoniae 376, Gram +, Quin-R
Source text: as §1

S. aureus (ATCC 43300) = conditions: Gram +, MRSA
Source text: as §1

S. aureus 1651 = conditions: S. aureus 1651, Gram +, LRSA
Source text: as §1

S. aureus 2144 = conditions: S. aureus 2144, Gram +, CA, USA 300 Strain
Source text: as §1

E. coli 2269 = conditions: E. coli 2269, Gram −, ESBL-producer
Source text: as §1

M. catarrhalis 557 = conditions: M. catarrhalis 557, Gram −
Source text: as §1

S. epidermidis 1597 = conditions: S. epidermidis 1597, Gram +, MSSE
Source text: as §1

S. aureus 2018 = conditions: S. aureus 2018, Gram +, VISA
Source text: as §1

S. pyogenes 723 = conditions: S. pyogenes 723, Gram +
Source text: as §1

S. aureus (ATCC 6538) = conditions: Gram +, MSSA
Source text: as §1

K. pneumoniae 2239 = conditions: K. pneumoniae 2239, Gram −
Source text: as §1

[2] = tested on: P. aeruginosa (ATCC 27853); conditions: Gram −
Source text: as §1

H. influenzae 1742 = conditions: H. influenzae 1742, Gram −, ampR
Source text: as §1

CN[C@H](CC(C)C)C(=O)N[C@H]1C(=O)N[C@@H](CC(N)=O)C(=O)N[C@H]2C(=O)N[C@H]3C(=O)N[C@H](C(=O)N[C@H](C(=O)O)c4cc(O)cc(O)c4-c4cc3ccc4O)[C@H](O)c3ccc(c(Cl)c3)Oc3cc2cc(c3O[C@@H]2O[C@H](CO)[C@@H](O)[C@H](O)[C@H]2O[C@H]2C[C@](C)(N)[C@H](O)[C@H](C)O2)Oc2ccc(cc2Cl)[C@H]1O [Vancomycin]
antibacterial activity (dilution susceptibility test) (S. epidermidis 1452): 2
antibacterial activity (dilution susceptibility test) (S. pneumoniae 975): 0.5
antibacterial activity (dilution susceptibility test) (S. saprophyticus 495): 1
antibacterial activity (dilution susceptibility test) (S. aureus (ATCC 29213)): 1
antibacterial activity (dilution susceptibility test) (S. aureus 2012): 8
antibacterial activity (dilution susceptibility test) (K. pneumoniae 2262): >64
antibacterial activity (dilution susceptibility test) (S. pneumoniae 933): 0.5
antibacterial activity (dilution susceptibility test) (S. pneumoniae 940): 0.25
antibacterial activity (dilution susceptibility test) (S. aureus 1137): 1
antibacterial activity (dilution susceptibility test) (S. agalactiae 2033): 0.5
antibacterial activity (dilution susceptibility test) (E. faecium 700221): >64
antibacterial activity (dilution susceptibility test) [1]: 64
antibacterial activity (dilution susceptibility test) (E. coli 102 (ATCC 25922)): >64
antibacterial activity (dilution susceptibility test) (S. aureus 1725): 1
antibacterial activity (dilution susceptibility test) (E. faecalis 846): >64
antibacterial activity (dilution susceptibility test) (S. marcescens 1635): >64
antibacterial activity (dilution susceptibility test) (S. pneumoniae 376): 0.5
antibacterial activity (dilution susceptibility test) (S. aureus (ATCC 43300)): 2
antibacterial activity (dilution susceptibility test) (S. aureus 1651): 1
antibacterial activity (dilution susceptibility test) (S. aureus 2144): 1
antibacterial activity (dilution susceptibility test) (E. coli 2269): >64
antibacterial activity (dilution susceptibility test) (M. catarrhalis 557): >64
antibacterial activity (dilution susceptibility test) (S. epidermidis 1597): 2
antibacterial activity (dilution susceptibility test) (S. aureus 2018): 8
antibacterial activity (dilution susceptibility test) (S. pyogenes 723): 0.5
antibacterial activity (dilution susceptibility test) (S. aureus (ATCC 6538)): 0.5
antibacterial activity (dilution susceptibility test) (K. pneumoniae 2239): >64
antibacterial activity (dilution susceptibility test) [2]: >64
antibacterial activity (dilution susceptibility test) (H. influenzae 1742): >64

COC(=O)c1c(C)cc2c(c1O)[C@]1(O)C(=O)c3cc4c(c(O)c3C(=O)[C@]1(OC)[C@H](O)C2)C(=O)C=C(N[C@H]1O[C@@H](C)[C@H](OC)[C@@H](O)[C@H]1OC)C4=O [Cmpd 12]
antibacterial activity (dilution susceptibility test) (S. epidermidis 1452): ≦0.06
antibacterial activity (dilution susceptibility test) (S. pneumoniae 975): ≦0.06
antibacterial activity (dilution susceptibility test) (S. saprophyticus 495): ≦0.06
antibacterial activity (dilution susceptibility test) (S. aureus (ATCC 29213)): ≦0.06
antibacterial activity (dilution susceptibility test) (S. aureus 2012): ≦0.06
antibacterial activity (dilution susceptibility test) (K. pneumoniae 2262): 64
antibacterial activity (dilution susceptibility test) (S. pneumoniae 933): ≦0.06
antibacterial activity (dilution susceptibility test) (S. pneumoniae 940): ≦0.06
antibacterial activity (dilution susceptibility test) (S. aureus 1137): ≦0.06
antibacterial activity (dilution susceptibility test) (S. agalactiae 2033): ≦0.06
antibacterial activity (dilution susceptibility test) (E. faecium 700221): 0.06
antibacterial activity (dilution susceptibility test) [1]: 8
antibacterial activity (dilution susceptibility test) (E. coli 102 (ATCC 25922)): 32
antibacterial activity (dilution susceptibility test) (S. aureus 1725): ≦0.06
antibacterial activity (dilution susceptibility test) (E. faecalis 846): ≦0.06
antibacterial activity (dilution susceptibility test) (S. marcescens 1635): 64
antibacterial activity (dilution susceptibility test) (S. pneumoniae 376): ≦0.06
antibacterial activity (dilution susceptibility test) (S. aureus (ATCC 43300)): 0.008
antibacterial activity (dilution susceptibility test) (S. aureus 1651): ≦0.06
antibacterial activity (dilution susceptibility test) (S. aureus 2144): ≦0.06
antibacterial activity (dilution susceptibility test) (E. coli 2269): 32
antibacterial activity (dilution susceptibility test) (M. catarrhalis 557): 0.12
antibacterial activity (dilution susceptibility test) (S. epidermidis 1597): ≦0.06
antibacterial activity (dilution susceptibility test) (S. aureus 2018): ≦0.06
antibacterial activity (dilution susceptibility test) (S. pyogenes 723): ≦0.06
antibacterial activity (dilution susceptibility test) (S. aureus (ATCC 6538)): 0.008
antibacterial activity (dilution susceptibility test) (K. pneumoniae 2239): 64
antibacterial activity (dilution susceptibility test) [2]: 32
antibacterial activity (dilution susceptibility test) (H. influenzae 1742): 4
